From ChEMBL document CHEMBL1201862, “PubChem BioAssay data set” (2004)
Active and inactive are the calls of the source.

Tests used:
[1] = biological target: Protein kinase C delta type (Homo sapiens, UniProt Q05655); type: functional
[2] = biological target: Calcium/calmodulin-dependent protein kinase type II subunit gamma (Homo sapiens, UniProt Q13555); type: functional
[3] = biological target: Serine/threonine-protein kinase PAK 1 (Homo sapiens, UniProt Q13153); type: functional
[4] = biological target: Calcium/calmodulin-dependent protein kinase type II subunit delta (Homo sapiens, UniProt Q13557); type: functional
[5] = biological target: Casein kinase I isoform alpha (Homo sapiens, UniProt P48729); type: functional
Chain of Casein kinase I isoform alpha (P48729 whole entry, canonical isoform): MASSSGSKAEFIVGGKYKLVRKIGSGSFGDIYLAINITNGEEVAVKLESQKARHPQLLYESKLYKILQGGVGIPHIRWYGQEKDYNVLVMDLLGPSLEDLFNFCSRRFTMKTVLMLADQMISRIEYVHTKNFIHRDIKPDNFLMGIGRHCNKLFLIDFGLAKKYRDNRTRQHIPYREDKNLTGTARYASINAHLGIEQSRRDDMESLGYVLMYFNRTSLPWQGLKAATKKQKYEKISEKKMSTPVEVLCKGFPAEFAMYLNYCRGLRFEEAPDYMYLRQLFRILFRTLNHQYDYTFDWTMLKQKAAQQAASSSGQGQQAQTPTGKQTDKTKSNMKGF

[6] = biological target: Serine/threonine-protein kinase TAO1 (Homo sapiens, UniProt Q7L7X3); type: functional
[7] = biological target: Casein kinase I isoform delta (Homo sapiens, UniProt P48730); type: functional;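 further: measured as one member (CSNK1D) of a kinome panel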
[8] = biological target: Calcium/calmodulin-dependent protein kinase type II subunit beta (Homo sapiens, UniProt Q13554); type: functional
DNA topoisomerase = DNA topoisomerase (Yersinia pestis, UniProt A0A2S9PM60); experiment: Y. pestis Topo-I inhibitors, cleavage product readout, dose response, biochemical, cherry-pick (AID 588525)
Chain of DNA topoisomerase (A0A2S9PM60 whole entry): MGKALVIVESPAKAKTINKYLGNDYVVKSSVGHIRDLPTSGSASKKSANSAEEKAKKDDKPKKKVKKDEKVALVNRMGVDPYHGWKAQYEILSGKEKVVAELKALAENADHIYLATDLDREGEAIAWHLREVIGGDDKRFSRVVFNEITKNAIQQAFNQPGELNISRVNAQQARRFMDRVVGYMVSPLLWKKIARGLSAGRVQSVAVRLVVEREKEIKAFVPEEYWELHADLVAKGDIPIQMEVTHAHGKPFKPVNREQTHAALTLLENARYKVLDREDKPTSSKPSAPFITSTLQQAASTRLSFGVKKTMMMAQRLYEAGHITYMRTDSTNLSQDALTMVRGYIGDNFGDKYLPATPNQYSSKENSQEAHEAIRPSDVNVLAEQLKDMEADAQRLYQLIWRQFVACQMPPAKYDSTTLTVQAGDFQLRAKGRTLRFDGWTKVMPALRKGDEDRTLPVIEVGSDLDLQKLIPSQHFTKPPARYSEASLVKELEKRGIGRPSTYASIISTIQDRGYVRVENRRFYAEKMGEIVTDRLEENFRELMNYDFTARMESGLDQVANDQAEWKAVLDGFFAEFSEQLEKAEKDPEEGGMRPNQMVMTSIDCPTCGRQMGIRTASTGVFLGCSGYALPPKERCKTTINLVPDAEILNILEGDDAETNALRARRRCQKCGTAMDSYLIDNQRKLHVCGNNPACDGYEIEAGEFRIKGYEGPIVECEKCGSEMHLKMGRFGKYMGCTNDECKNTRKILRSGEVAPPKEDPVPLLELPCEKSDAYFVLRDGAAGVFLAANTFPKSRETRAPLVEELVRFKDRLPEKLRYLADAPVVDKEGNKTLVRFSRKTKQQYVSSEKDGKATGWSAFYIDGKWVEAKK

Cytochrome P450 2D6 = Cytochrome P450 2D6 (Homo sapiens, UniProt P10635);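 further: CYP2D6 member of a cytochrome P450 panel assay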
Cytochrome P450 2C9 = Cytochrome P450 2C9 (Homo sapiens, UniProt P11712)
Chain of Cytochrome P450 2C9 (P11712 whole entry): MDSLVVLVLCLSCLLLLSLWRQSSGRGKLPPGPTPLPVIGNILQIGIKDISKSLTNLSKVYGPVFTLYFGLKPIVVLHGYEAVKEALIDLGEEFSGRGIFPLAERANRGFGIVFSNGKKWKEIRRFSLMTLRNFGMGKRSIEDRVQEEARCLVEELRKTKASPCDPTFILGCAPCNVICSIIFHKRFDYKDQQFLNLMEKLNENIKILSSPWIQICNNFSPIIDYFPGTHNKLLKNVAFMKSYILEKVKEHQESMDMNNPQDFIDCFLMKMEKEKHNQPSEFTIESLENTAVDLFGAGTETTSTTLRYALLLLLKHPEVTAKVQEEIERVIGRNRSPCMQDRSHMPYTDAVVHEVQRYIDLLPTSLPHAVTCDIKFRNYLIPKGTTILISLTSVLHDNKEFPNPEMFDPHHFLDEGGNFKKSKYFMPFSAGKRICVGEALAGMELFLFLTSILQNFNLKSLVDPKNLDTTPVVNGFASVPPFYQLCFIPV

[9] = THP-1 cell cytotoxicity, cytotoxicity control, set 4 (AID 504911); type: functional; settings: Mycobacterium tuberculosis
[10] = THP-1 cell cytotoxicity, cytotoxicity control, set 6 (AID 602433); type: functional; settings: Mycobacterium tuberculosis
[11] = THP-1 cell cytotoxicity, dose response, cytotoxicity control, set 3 (AID 504852); type: functional; settings: Mycobacterium tuberculosis
INS1 [12] = experiment: protection of INS-1E cells from cytokine death, dose response, ATP luminescence, dry powder (AID 488844); type: functional, cell-based; settings: Rattus norvegicus
[13] = inhibitors of cytokine-induced nitrite release, dose response, cell-based, Griess absorbance, INS-1E, dry powder, set 3 (AID 488870); type: functional; settings: Rattus norvegicus
INS1 [14] = experiment: protection from cytokine-driven beta-cell apoptosis, dose response, JC-1 fluorescence, INS-1E, dry powder, set 2 (AID 488867); type: functional, cell-based; settings: Rattus norvegicus
INS1 [15] = experiment: protection from cytokine-induced mitochondrial depolarization, dose response, cell-based, INS-1E, JC-1 fluorescence ratio, dry powder (AID 488931); type: functional; settings: Rattus norvegicus
Beta-lactamase [16] = biological target: Beta-lactamase (Pseudomonas aeruginosa, UniProt Q79MP6);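 further: biochemical dose-response test of metallo-beta-lactamase enzyme inhibition, read out by epi-absorbance; purified recombinant IMP-1 metallo-beta-lactamase with nitrocefin as substrate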
Chain of Beta-lactamase (Pseudomonas aeruginosa, UniProt Q79MP6) (Q79MP6 whole entry): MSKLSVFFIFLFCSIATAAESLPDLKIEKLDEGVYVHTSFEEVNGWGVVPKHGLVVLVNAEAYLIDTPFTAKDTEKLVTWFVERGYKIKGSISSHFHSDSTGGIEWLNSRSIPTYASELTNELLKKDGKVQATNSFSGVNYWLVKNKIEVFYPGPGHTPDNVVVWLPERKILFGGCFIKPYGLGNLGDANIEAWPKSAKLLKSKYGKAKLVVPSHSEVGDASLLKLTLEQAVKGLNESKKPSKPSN

Beta-lactamase [17] = biological target: Beta-lactamase (Salmonella choleraesuis (strain SC-B67), UniProt Q5J463)
Chain of Beta-lactamase (Salmonella choleraesuis (strain SC-B67), UniProt Q5J463) (Q5J463 whole entry): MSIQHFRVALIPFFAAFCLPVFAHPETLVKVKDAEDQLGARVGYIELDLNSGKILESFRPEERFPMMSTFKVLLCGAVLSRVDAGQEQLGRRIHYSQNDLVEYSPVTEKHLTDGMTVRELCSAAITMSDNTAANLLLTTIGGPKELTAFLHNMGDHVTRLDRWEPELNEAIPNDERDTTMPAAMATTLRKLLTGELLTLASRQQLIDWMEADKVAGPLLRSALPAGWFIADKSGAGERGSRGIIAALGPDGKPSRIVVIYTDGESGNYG

ORF 73 = ORF 73 (Human herpesvirus 8, UniProt O40947); experiment: inhibitors of C-LANA binding to LBS DNA, dose response, biochemical, fluorescence polarization, cherry-picked samples (AID 504725); set-up: species or system Human gammaherpesvirus 8;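 further: fluorescence polarization of a labeled DNA duplex reporting LANA DNA binding; potency is for inhibitors that block LANA binding to the DNA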
Insulin-degrading enzyme [18] = biological target: T1, Insulin-degrading enzyme (Homo sapiens, UniProt P14735); experiment: activators of recombinant IDE enzyme, dose response, counter-screen for IDE activator project, biochemical, fluorescence polarization (AID 588681)
T1 sequence (P14735 whole entry): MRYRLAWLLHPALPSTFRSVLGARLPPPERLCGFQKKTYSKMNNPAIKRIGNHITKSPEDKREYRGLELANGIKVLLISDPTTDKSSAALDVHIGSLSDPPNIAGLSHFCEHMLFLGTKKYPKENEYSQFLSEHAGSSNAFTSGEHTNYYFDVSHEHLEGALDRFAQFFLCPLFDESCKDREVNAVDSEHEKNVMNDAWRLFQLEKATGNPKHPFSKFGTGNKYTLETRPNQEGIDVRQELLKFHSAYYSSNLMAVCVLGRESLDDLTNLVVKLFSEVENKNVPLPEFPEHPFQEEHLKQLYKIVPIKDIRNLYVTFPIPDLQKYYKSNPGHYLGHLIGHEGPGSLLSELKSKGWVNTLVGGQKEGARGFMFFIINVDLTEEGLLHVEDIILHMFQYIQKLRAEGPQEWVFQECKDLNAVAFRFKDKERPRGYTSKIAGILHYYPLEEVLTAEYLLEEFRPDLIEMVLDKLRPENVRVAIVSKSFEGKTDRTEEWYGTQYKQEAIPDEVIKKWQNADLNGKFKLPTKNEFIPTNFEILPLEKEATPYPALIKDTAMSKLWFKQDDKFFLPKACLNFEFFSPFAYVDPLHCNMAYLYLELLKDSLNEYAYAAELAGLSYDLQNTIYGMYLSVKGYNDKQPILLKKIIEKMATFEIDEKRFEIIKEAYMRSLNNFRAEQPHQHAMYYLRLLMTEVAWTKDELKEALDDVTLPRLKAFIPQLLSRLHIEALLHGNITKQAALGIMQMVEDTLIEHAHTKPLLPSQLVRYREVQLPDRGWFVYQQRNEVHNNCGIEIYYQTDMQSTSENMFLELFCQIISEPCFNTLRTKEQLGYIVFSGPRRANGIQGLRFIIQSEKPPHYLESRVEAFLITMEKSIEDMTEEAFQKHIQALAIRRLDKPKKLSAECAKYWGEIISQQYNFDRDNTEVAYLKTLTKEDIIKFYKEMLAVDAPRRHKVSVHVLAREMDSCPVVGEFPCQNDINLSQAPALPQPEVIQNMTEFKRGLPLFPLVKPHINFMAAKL

Insulin-degrading enzyme [19] = biological target: T1, Insulin-degrading enzyme; experiment: activators of endogenous IDE in HEK cells, dose response, cell-based, fluorescence polarization (AID 588439); type: functional
HEK293 [20] = experiment: HEK cell cytotoxicity by LDH release, dose response, cytotoxicity control for IDE activator project, fluorescence, HEK cells (AID 588440); type: functional, cell-based; settings: Homo sapiens;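 further: cytotoxicity by LDH release measuring loss of membrane integrity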
HEK293 [21] = experiment: optical interference in Abeta FP readout, dose response, artefact control for IDE activator project, biochemical, fluorescence polarization (AID 588442); type: functional, cell-based; settings: Homo sapiens
[22] = Vero cell cytotoxicity, dose response, cytotoxicity control for M. tuberculosis growth inhibitor project, Vero cells, purified and synthesized compounds, set 4 (AID 504854); type: functional; settings: Mycobacterium tuberculosis
[23] = Luminescence Cell-Based Dose Response HTS to Identify Inhibitors of Luciferase Translation or Activity in H4-C Neuroglioblastoma Cells. [Related pubchem assays: 1813 (Primary HTS), 1827 (Project Summary)]; type: functional
[24] = Luminescence Cell-Based Dose Response HTS to Identify Activators of Luciferase Translation or Activity in H4-C Neuroglioblastoma Cells. [Related pubchem assays: 1829 (Project Summary), 1814 (Primary HTS)]; type: functional
[25] = inhibitors of firefly luciferase expression or activity, dose response, H4 neuroglioma cells, luminescence (AID 1990); type: functional, cell-based
[26] = luciferase reporter signal reduction – luminescence, H4-C neuroglioblastoma cells, dose response (AID 2458); type: functional, cell-based;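 further: H4 neuroglioblastoma cells stably carrying a luciferase reporter gene fusion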
[27] = Luminescence Cell-Based Dose Response HTS to Identify Activators of 5'UTR Stem-Loop Driven Prion Protein mRNA Translation in H4-C Neuroglioblastoma Cells. [Related pubchem assays: 1829 (Project Summary), 1814 (Primary HTS)]; type: functional
[28] = Luminescence Cell-Based Dose HTS Response to Identify Inhibitors of 5'UTR Stem-Loop Driven Prion Protein mRNA Translation in H4-C Neuroglioblastoma Cells. [Related pubchem assays (depositor defined):AID1814, AID1827]; type: functional
BJ [29] = experiment: cytotoxicity toward BJ-TERT fibroblasts, dose response, cell-based, RAS-independent, luminescence (AID 1933); type: functional; settings: Homo sapiens
cells = type: functional, cell-based
[30] = Luminescence Cell-Based Dose Response HTS to Identify Inhibitors of 5'UTR Stem-Loop Driven Prion Protein mRNA Translation in H4 Neuroglioblastoma Cells. [Related pubchem assays: 1827 (Project Summary), 1813 (Primary HTS)]; type: functional
[31] = inhibitors of SNCA 5'UTR-driven reporter translation, confirmation, H4 neuroglioma cells, luminescence (AID 1988); type: functional, cell-based
BJ [32] = experiment: cells; type: functional, cell-based; settings: Homo sapiens
[33] = Luminescence Cell-Based Dose Confirmation HTS to Identify Inhibitors of 5'UTR Stem-Loop Driven Alpha-Synuclein mRNA Translation in H4 Neuroglioblastoma Cells. [Related pubchem assays: 1827 (Project Summary), 1813 (Primary HTS)]; type: functional
BJ [34] = experiment: cytotoxicity toward BJ-TERT-LT-ST fibroblasts, dose response, cell-based, RAS-independent, luminescence (AID 1935); type: functional; settings: Homo sapiens;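 further: BJ fibroblasts immortalized with TERT plus LT and ST oncogenes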
[35] = cytotoxicity toward DRD oncogenic fibroblasts, dose response, cell-based, non-viral oncogenic, luminescence (AID 1934); type: functional; settings: Homo sapiens
[36] = inhibitors of SNCA 5'UTR-driven translation, confirmation, luminescence, H4 neuroglioblastoma cells, dose confirmation (AID 2454); type: functional, cell-based;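 further: H4 neuroglioblastoma cells carrying an alpha-synuclein 5'UTR luciferase reporter; potency for inhibition of the luciferase signal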
BJ [37] = experiment: cytotoxicity toward Ras-transformed BJeLR fibroblasts, dose response, cell-based, alamar blue fluorescence, cherrypicked samples (AID 2631); type: functional; settings: Homo sapiens;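 further: confirmatory dose-response assay in RAS-dependent BJ fibroblasts engineered with TERT, LT and ST, with cytotoxicity read by fluorescence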

Chain of Serine/threonine-protein kinase PAK 1 (Q13153 whole entry): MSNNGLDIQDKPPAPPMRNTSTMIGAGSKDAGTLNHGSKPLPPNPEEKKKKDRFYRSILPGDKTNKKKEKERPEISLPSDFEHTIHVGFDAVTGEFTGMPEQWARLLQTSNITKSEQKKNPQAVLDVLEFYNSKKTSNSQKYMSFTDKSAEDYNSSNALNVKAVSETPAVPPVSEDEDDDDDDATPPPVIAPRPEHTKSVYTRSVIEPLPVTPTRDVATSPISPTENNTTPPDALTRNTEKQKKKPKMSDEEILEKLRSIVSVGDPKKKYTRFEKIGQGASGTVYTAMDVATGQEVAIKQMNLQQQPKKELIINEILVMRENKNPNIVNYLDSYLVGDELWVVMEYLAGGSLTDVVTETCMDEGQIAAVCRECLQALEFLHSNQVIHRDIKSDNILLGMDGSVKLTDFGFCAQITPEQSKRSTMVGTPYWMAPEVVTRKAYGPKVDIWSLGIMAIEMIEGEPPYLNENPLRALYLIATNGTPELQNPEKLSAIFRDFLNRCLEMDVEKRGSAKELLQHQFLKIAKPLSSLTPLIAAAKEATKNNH
Chain of Protein kinase C delta type (Q05655 whole entry): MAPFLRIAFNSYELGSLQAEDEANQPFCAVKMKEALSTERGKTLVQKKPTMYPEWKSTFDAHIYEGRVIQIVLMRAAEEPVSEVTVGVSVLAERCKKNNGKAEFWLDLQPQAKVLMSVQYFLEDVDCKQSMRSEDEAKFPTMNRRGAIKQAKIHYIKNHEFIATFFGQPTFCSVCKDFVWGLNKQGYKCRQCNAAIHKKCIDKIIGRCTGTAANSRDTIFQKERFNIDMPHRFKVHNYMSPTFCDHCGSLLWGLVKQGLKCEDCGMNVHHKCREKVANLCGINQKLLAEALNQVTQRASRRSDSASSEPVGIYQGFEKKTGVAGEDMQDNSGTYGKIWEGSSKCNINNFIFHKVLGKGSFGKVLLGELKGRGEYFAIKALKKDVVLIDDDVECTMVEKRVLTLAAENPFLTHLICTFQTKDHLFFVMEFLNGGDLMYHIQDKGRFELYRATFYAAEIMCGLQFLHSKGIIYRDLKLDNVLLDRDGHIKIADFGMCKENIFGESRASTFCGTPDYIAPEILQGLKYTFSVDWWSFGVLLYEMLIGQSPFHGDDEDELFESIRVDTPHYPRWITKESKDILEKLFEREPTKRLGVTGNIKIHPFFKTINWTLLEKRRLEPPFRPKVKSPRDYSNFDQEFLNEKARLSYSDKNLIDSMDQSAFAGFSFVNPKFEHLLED
Chain of Calcium/calmodulin-dependent protein kinase type II subunit gamma (Q13555 whole entry): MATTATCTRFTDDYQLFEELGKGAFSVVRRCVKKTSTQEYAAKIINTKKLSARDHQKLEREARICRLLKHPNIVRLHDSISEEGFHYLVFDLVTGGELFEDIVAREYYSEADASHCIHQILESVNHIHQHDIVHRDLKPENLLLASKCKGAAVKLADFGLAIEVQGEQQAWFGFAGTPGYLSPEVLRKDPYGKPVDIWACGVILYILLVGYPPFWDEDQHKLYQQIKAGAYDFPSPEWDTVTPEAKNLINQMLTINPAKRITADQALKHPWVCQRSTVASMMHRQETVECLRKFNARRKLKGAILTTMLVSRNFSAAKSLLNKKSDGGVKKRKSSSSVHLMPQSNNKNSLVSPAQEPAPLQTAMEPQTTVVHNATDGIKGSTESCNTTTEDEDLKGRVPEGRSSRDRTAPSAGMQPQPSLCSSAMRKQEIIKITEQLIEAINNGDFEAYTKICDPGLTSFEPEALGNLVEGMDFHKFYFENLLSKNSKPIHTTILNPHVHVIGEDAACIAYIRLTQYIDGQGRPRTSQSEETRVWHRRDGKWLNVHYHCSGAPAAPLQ

**Q.** For CCCCOc1ccccc1CCc1cccc2nc(N)nc(N)c12, which Ki [1] is on record?
**A.** 5.01 µM (active)

**Q.** And the Ki [2]?
**A.** 3.16 µM (active)

**Q.** And the Ki [3]?
**A.** 3.16 µM (active)

**Q.** And the Ki [4]?
**A.** 5.01 µM (active)

**Q.** And the Ki [5]?
**A.** 1.58 µM (active)

**Q.** What about the Ki [6] of the same molecule?
**A.** 10 µM (active)

**Q.** And the Ki [7]?
**A.** 3.98 µM (active)

**Q.** And the Ki [8]?
**A.** 2.51 µM (active)

**Q.** What does the source list for Clc1cccc(CSc2nnc(-c3sccc3-n3cccc3)o2)c1?
**A.** AC50 (DNA topoisomerase): 5.15 µM (active); AC50 (Cytochrome P450 2D6): 0.398 µM (inconclusive); AC50 (Cytochrome P450 2C9): inconclusive

**Q.** What does the source list for CC(C)CCNC(=O)CSc1nc(O)c2ccccc2n1?
**A.** CC50 [9]: > 100 µM (active); CC50 [10]: > 100 µM (active); CC50 [11]: > 100 µM (active)

**Q.** For C[C@@H]1CN([C@@H](C)CO)C(=O)c2cccc(NC(=O)Nc3cccc4ccccc34)c2O[C@H]1CN(C)S(=O)(=O)c1ccc2c(c1)OCC2, which AC50 (INS1 [12]) is on record?
**A.** 67.9 µM (active)

**Q.** What about the AC50 [13] of the same molecule?
**A.** 25.2 µM (active)

**Q.** And the AC50 (INS1 [14])?
**A.** 29.8 µM (active)

**Q.** And the AC50 (INS1 [15])?
**A.** > 195 µM (inactive)

**Q.** With CCOc1ccc(/C=C2\CCCc3c2nc2ccccc2c3C(=O)O)cc1OC as the molecule, how does the IC50 (Beta-lactamase [16]) read?
**A.** 53.1 µM (inactive)

**Q.** What about the IC50 (Beta-lactamase [17]) of the same molecule?
**A.** 10.9 µM (inactive)

**Q.** What about the AC50 (ORF 73) of the same molecule?
**A.** 0.908 µM (active)

**Q.** What about the EC50 (Insulin-degrading enzyme [18]) of the same molecule?
**A.** > 54.7 µM (inactive)

**Q.** And the EC50 (Insulin-degrading enzyme [19])?
**A.** > 54.7 µM (inactive)

**Q.** And the IC50 (HEK293 [20])?
**A.** > 89.2 µM (inactive)

**Q.** What about the EC50 (HEK293 [21]) of the same molecule?
**A.** 5.38 µM (active)

**Q.** With CCC(Sc1nc2ccccc2c(=O)[nH]1)C(=O)Nc1cccc(OC)c1 (configuration not stated) as the molecule, how does the CC50 [22] read?
**A.** > 100 µM (active)

**Q.** With CCOC(=O)c1[nH]c(C)c(C(=O)N2CCc3ccccc32)c1C as the molecule, how does the EC50 [23] read?
**A.** 1.01 µM (active)

**Q.** What about the EC50 [24] of the same molecule?
**A.** 0.63 µM (inconclusive)

**Q.** What about the EC50 [25] of the same molecule?
**A.** 4.63 µM (inconclusive)

**Q.** And the EC50 [26]?
**A.** 1.07 µM (active)

**Q.** And the EC50 [27]?
**A.** 0.353 µM (inconclusive)

**Q.** What about the EC50 [28] of the same molecule?
**A.** 2.33 µM (active)

**Q.** And the EC50 (BJ [29])?
**A.** 0.704 µM (inconclusive)

**Q.** What about the EC50 (cells) of the same molecule?
**A.** 1.22 µM (active)

**Q.** And the EC50 [30]?
**A.** 4.65 µM (active)

**Q.** What about the EC50 [31] of the same molecule?
**A.** < 0.1 µM (active)

**Q.** And the EC50 (BJ [32])?
**A.** 10.8 µM (active)

**Q.** And the EC50 [33]?
**A.** 2.13 µM (active)

**Q.** And the EC50 (BJ [34])?
**A.** 0.42 µM (inconclusive)

**Q.** What about the EC50 [35] of the same molecule?
**A.** 0.656 µM (active)

**Q.** And the EC50 [36]?
**A.** 1.3 µM (active)

**Q.** What about the EC50 (BJ [37]) of the same molecule?
**A.** 0.252 µM (active)
